Entries after “also recorded” stand apart in the source; their conditions may differ.
Assays:
nAChR receptor [1] = assay: Epibatidine-induced CGRP release in tracheal tissue; assay type: cell-based, mouse
TRPA1 channel [2] = target: T1, TRPA1 channel (Mus musculus, UniProt Q8BLA8); assay: Formalin-stimulated CGRP release in skin and tracheal tissue samples; assay type: cell-based; design: formalin-stimulated GCRP release in both skin and tracheal tissue samples; from tissue; host or cells: skin and tracheal tissue samples; conditions: FIG. 8
T1 sequence (Q8BLA8 whole entry): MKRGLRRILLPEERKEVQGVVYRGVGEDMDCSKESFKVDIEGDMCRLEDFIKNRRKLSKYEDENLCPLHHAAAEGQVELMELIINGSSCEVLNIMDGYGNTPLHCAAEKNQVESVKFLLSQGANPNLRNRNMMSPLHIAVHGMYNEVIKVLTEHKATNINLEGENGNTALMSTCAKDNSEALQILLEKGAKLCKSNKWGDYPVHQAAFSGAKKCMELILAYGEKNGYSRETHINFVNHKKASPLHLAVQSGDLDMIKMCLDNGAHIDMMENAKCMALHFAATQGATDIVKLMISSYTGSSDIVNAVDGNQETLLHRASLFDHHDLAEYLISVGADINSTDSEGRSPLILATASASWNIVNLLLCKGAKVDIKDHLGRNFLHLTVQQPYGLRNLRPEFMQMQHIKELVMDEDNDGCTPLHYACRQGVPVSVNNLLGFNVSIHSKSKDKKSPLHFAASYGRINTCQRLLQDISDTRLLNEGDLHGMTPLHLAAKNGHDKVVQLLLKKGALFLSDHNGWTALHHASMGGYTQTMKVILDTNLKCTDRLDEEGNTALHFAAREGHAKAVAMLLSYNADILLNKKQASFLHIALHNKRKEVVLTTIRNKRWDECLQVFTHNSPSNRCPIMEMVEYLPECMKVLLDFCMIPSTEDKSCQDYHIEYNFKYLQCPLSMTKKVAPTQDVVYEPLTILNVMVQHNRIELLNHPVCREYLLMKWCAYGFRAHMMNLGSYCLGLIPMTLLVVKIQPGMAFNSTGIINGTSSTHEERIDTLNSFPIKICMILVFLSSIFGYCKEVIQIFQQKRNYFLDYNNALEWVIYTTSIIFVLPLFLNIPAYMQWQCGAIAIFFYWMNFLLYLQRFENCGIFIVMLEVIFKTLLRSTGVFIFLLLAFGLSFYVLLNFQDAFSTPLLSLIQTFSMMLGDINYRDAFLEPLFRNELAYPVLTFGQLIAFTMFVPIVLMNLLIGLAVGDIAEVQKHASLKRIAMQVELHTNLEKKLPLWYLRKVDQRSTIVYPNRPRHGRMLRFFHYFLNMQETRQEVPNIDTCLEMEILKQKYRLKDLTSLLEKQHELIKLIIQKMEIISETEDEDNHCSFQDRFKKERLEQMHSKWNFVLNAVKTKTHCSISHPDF
Method: (§1) Similar dosing experiments were performed using formalin, a TRPA1 channel […]. […] (FIG. 8). […] Thus, in some embodiments, active ingredients may be used that inhibit both the nicotinic acetylcholine receptors and the TRPA1 channel. […] (FIG. 9). […] (FIG. 9).

[3] = tested on: mouse nodose/jugular Ggl neurons; assay: Calcium imaging (340 and 380 nm) of nicotine-stimulated neurons; assay type: cell-based; conditions: FIG. 3b
Method: (§2) (FIG. 3a). […] Calcium-imaging experiments were performed on mouse nodose/jugular Ggl neurons with images captures at 340 and 380 nm over time. (FIG. 3b). […] (FIG. 3b). […] (FIG. 3c). […] (FIG. 3c). […] (FIG. 3d).

TRPV1 channel = assay: Heat (45° C.)-induced CGRP release in tracheal samples; assay type: cell-based, mouse; conditions: FIG. 6; for Heat-induced CGRP release with test substance: 45° C.
tracheal tissue samples = assay: Total particulate matter (TPM)-stimulated CGRP release in tracheal tissue samples; assay type: cell-based; conditions: FIG. 10
Excerpt: To assess the potential of camphor on GCRP release stimulated by cigarette smoking, tracheal tissue samples were exposed to total particulate matter (TPM) containing the same amount of nicotine as in the nicotine alone experiment. […] (FIG. 10). […] (FIG. 10). The results observed in the TPM experiments are similar to those seen in experiments in which nicotine is used alone. (FIG. 10).

TRPA1 channel [4] = target: T1, TRPA1 channel; assay: Acrolein-induced CGRP release in mouse trachea tissue; assay type: cell-based; design: CGRP release can be detected in vitro using whole trachea tissue; from tissue; host or cells: mouse trachea; conditions: FIG. 7; for CGRP release versus acrolein alone: trachea samples exposed to acrolein plus test substance
Method: (§3) CGRP is a sensory biomarker of neurons that mediate information to the brain. CGRP release can be detected in vitro using whole trachea tissue by exposing the tissue to a stimulatory compound. A standard ELISA assay may then be used to measure the release of CGRP. The active ingredient was tested using a mouse trachea model.
(FIG. 7). […] (FIG. 7). […] (FIG. 7).

nerve fibers = conditions: isolated mouse trachea model; cited from earlier work
[5] = tested on: nicotinic acetylcholine receptors; assay: Nicotine-induced CGRP release in buccal mucosa tissue samples; assay type: cell-based, mouse
Excerpt: Active ingredients appropriate for use in embodiments described herein may also include isoborneol.

TRPA1 channel [6] = target: T1, TRPA1 channel; assay: TRPA1 irritant-stimulated iCGRP release in tracheal tissue samples; assay type: cell-based; design: formalin-stimulated GCRP release in both skin and tracheal tissue samples; from tissue; host or cells: skin and tracheal tissue samples; conditions: tracheal tissue samples with TRPA1 channel irritants; FIG. 9
Method: as §1

nAChR receptor [7] = assay: Nicotine-induced CGRP release in mouse trachea tissue (ELISA); assay type: cell-based; conditions: for CGRP release versus nicotine alone: trachea samples exposed to nicotine plus test substance, FIG. 1b; for Maximal nicotinic response (CGRP release, time course): trachea tissue pretreated with nicotine, then enantiomer, FIG. 2
Method: as §3
In order to determine whether a specific enantiomer of the active ingredient show greater efficacy, time course experiments were conducted in which trachea tissue samples were pretreated with nicotine and exposed to either the (−) or (+) enantiomer of camphor.
as §2

acetylcholine receptors = conditions: adrenal gland cells; cited from earlier work
[8] = tracheal samples of TRPV1 knockout mice
[9] = tracheal samples of normal mice

Compound: CNC1(C)C2CCC(C2)C1(C)C (stereo not shown) [Mecamylanine, reference compound]
- Epibatidine-induced CGRP release with inhibitor (nAChR receptor [1]; tracheal tissue, FIG. 3c): release of CGRP could be inhibited

Compound: CC12CCC(CC1=O)C2(C)C (stereo not shown) [camphor]
- Effect of camphor at high formalin concentrations (TRPA1 channel [2]; both skin and tracheal tissue samples): could be overcome at high formalin concentrations
- Formalin-stimulated CGRP release with camphor (TRPA1 channel [2]; skin tissue samples): decrease in formalin-stimulated GCRP release
- Formalin-stimulated CGRP release with camphor (TRPA1 channel [2]; tracheal tissue samples): decrease in formalin-stimulated GCRP release
- Nicotine-stimulated calcium influx in combination with test substance [3]: not when given in combination with camphor
- Epibatidine-induced CGRP release with camphor in absence of TRPA1 (nAChR receptor [1]; tracheal samples from TRPA1 knockout mice, FIG. 3d): effectively inhibited CGRP release; also recorded: marked reduction in CGRP release
- Epibatidine-induced CGRP release with inhibitor (nAChR receptor [1]; tracheal tissue, FIG. 3c): release of CGRP could be inhibited
- Heat-induced CGRP release with test substance (TRPV1 channel; [8]): released comparable levels of CGRP relative to normal samples
- Heat-induced CGRP release with test substance (TRPV1 channel; [9]): released comparable levels of CGRP relative to normal samples
- TPM-stimulated CGRP release with camphor (tracheal tissue samples): largely blocked
- CGRP release versus acrolein alone (TRPA1 channel [4]; FIG. 1c): decrease in CGRP release; also recorded: marked reduction in CGRP release
- CGRP release in camphor treated samples as acrolein concentration was increased (TRPA1 channel [4]; versus acrolein only at the same concentration): significantly lower levels of CGRP
- Activation of nerve fibers induced by nicotine (nerve fibers): effectively inhibit activation of nerve fibers
- CGRP release after nicotine followed by test substance, versus nicotine alone ([5]; buccal mucosa time course, male mice showed stronger inhibition, FIGS. 5a and 5b): CGRP release was significantly lower
- CGRP release with nicotine and camphor ([5]; buccal mucosa, TRPA1/TRPV1 double knockouts, FIG. 4): did not show a significant change in CGRP release
- TRPA1 channel mediated release of iCGRP with camphor (TRPA1 channel [6]): reduce the TRPA1 channel mediated release of iCGRP
- Dose dependence of anti-nicotinic effect (CGRP release) (nAChR receptor [7]; mouse trachea, nicotine plus various concentrations of camphor, FIG. 3a): CGRP release was decreased as the concentration of camphor was increased
- CGRP release versus nicotine alone (nAChR receptor [7]): released less CGRP compared to samples exposed to nicotine alone
- Nor-epinephrine release (acetylcholine receptors): inhibit nor-epinephrine release from adrenal gland cells

Compound: C=CC=O [acrolein, reference compound]
- CGRP release induced by the stimulus alone (TRPA1 channel [4]; trachea tissue, various concentrations, FIG. 1c): cause CGRP release at various concentrations; also recorded: released increased amounts of CGRP when exposed to higher concentrations

Compound: CC(C)c1ccc(NC(=O)Cn2cnc3c2c(=O)n(C)c(=O)n3C)cc1 [HC030031, reference compound]
- CGRP release versus acrolein alone (TRPA1 channel [4]; FIG. 1c): CGRP release was also reduced
- CGRP release versus nicotine alone (nAChR receptor [7]): did not show any significant reduction in CGRP release

Compound: CCO [ethanol]
- CGRP release in ethanol-treated TRPV1 knockout samples relative to ethanol-treated normal samples (TRPV1 channel; heat treated tracheal samples): 5 fold less
- Heat-induced CGRP release with test substance (TRPV1 channel; [8]): increase in CGRP release relative to untreated TRPV1 knockouts
- Heat-induced CGRP release with test substance (TRPV1 channel; [9]): increase CGRP release

Compound: NCCOB(c1ccccc1)c1ccccc1 [2-APB]
- Heat-induced CGRP release with test substance (TRPV1 channel; [9]): increase CGRP release

Compound: CC12CCC(CC1=O)C2(C)C (single isomer, unassigned; (+)) [(+) enantiomer of camphor]
- Maximal nicotinic response (CGRP release, time course) (nAChR receptor [7]): effective at abolishing the maximal nicotinic response

Compound: CN1CCCC1c1cccnc1 (stereo not shown) [nicotine]
- Calcium influx, stimulus alone [3]: stimulated calcium influx in Ggl neurons
- CGRP release induced by nicotine alone ([5]; buccal mucosa, TRPA1/TRPV1 double knockout mice, FIG. 4): did not respond to nicotine exposure by releasing similar amounts of CGRP relative to normal mice
- CGRP release induced by nicotine alone ([5]; buccal mucosa, normal C57Bl/6 mice, FIG. 4, FIGS. 5a and 5b): released increased amounts of CGRP; also recorded: increased release of CGRP
- CGRP release induced by the stimulus alone (nAChR receptor [7]; mouse trachea, FIG. 1a): induce the release of calcitonin gene-related peptide (CGRP)

Compound: Clc1ccc(C2CC3CCC2N3)cn1 (stereo not shown) [epibatidine, reference compound]
- CGRP release induced by the stimulus alone (nAChR receptor [1]; tracheal tissue, FIG. 3c): increased release of CGRP

Compound: CC1(C)[C@H]2CC[C@]1(C)C(=O)C2 (single isomer, unassigned) [(−) enantiomer of camphor]
- Maximal nicotinic response (CGRP release, time course) (nAChR receptor [7]): effective at abolishing the maximal nicotinic response

Compound: CC(C)(C)c1ccc(NC(=O)N2CCN(c3ncccc3Cl)CC2)cc1 [BCTC, reference compound]
- CGRP release versus nicotine alone (nAChR receptor [7]): did not show any significant reduction in CGRP release
